Results from patent US20110280940A1, “Di-Vanilloyl And Tri-Vanilloyl Derivatives For Use In Anti-Cancer Therapy” (priority 2008, published 2011).
Where two headings read alike, the source gives them in different places.

Key:
U373-MG glioma cell line = assay: Cellular imaging (quantitative videomicroscopy), global growth ratio, U373; assay type: cell-based; details: Homo sapiens, 72 h, read-out: Global Grow Ratio Treated/Ct (GGR T/Ct) determined by Video Quantitative microscopy, U373
Aurora C kinase = molecular target: T1, Aurora C kinase (Homo sapiens, UniProt Q9UQB9); assay: Radiometric protein kinase assay (33 PanQinase), Aurora C; assay type: biochemical; details: for IC50: dose-response 0-100 μM, n=3, read-out: IC50: Concentration of drug needed in order to inhibit kinase activity by 50%, AurC; for inhibition at 57 µM: read-out: inhibition of Aurora C activity
T1 construct: made in house
T1 sequence (Q9UQB9 1-309): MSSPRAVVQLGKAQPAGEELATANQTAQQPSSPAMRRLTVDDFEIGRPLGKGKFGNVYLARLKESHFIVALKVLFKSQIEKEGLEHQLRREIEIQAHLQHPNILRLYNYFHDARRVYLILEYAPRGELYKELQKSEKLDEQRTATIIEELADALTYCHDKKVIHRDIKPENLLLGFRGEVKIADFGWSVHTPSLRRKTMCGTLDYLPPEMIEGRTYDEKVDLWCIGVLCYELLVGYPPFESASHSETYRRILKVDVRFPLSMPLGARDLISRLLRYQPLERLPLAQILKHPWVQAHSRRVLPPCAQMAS
Description: Note that at a concentration of 20 μM of the DLT compounds, the activity of the three Aurora kinases is reduced by approximately 40-50%, whereas at concentrations of 50 μM, i.e. the concentration used in the anti-proliferation assays of example 2B, the activity of said kinases is reduced by 60-75%.
The kinase inhibition profile of DLT95-Cl at 20 μM was determined using 255 protein kinases. Residual activity values were measured by testing each compound at one concentration in duplicate in each kinase assay. A radiometric protein kinase assay (33 PanQinase®Activity Assay) was used for measuring the kinase activity of 250 protein kinases. All kinase assays were performed in 96-well flashPlates™ from Perkin Elmer (Boston, Mass., USA) in a 50 μl reaction volume. The reaction cocktail was pipetted in 4 steps in the following order: • 10 μl of non-radioactive ATP solution (in H2O) • 25 μl of assay buffer/[γ-33P]-ATP mixture • 5 μl of test sample in 10% DMSO • 10 μl of enzyme/substrate mixture
The assay for all enzymes contained 60 mM HEPES-NaOH, pH 7.5, 3 mM MgCl2, 3 mM MnCl2, 3 μM Na-orthovanadate, 1.2 mM DTT, 50 μg/ml PEG20000, 1 μM ATP/[γ-33P]-ATP (approx. […] per well), protein kinase, and substrate. All PKC assays (except the PKC-mu and the PKC-nu assay) additionally contained 1 mM CaCl2, 4 mM EDTA, 5 μg/ml Phosphatidylserine and 1 μg/ml 1,2-Dioleyl-glycerol. The MYLK2, CAMK1D, CAMK2A, CAMK2B, CAMK2D, CAMK4, CAMKK2, DAPK2 and EEF2K assays additionally contained 1 μg/ml Calmodulin and 0.5 mM CaCl2. The PRKG1 and PRKG2 assays additionally contained 1 μM cGMP.
The protein kinases were expressed either in Sf9 insect cells or in E. coli as recombinant GST-fusion proteins or as His-tagged proteins. All kinases were produced from human cDNAs. Kinases were purified by affinity chromatography using either GSH-agarose (Sigma) or Ni-NTH-agarose (Qiagen). The purity of the protein kinases was examined by SDS-PAGE/coomassie staining. The identity of the protein kinases was checked by mass spectroscopy.
The reaction cocktails were incubated at 30° C. for 60 minutes. The reaction was stopped with 50 μl of 2% (v/v) H3PO4, plates were aspirated and washed two times with 200 μl 0.9% (w/v) NaCl. All assays were performed with a BeckmanCoulter Biomek 2000/SL robotic system.
Incorporation of ^33Pi (counting of “cpm”) was determined with a microplate scintillation counter (Microbeta, Wallac).
For each kinase, the median value of the cpm of three wells with complete reaction cocktails, but without kinase, was defined as “low control” […]. This value reflects unspecific binding of radioactivity to the plate in the absence of protein kinase but in the presence of the substrate. Additionally, for each kinase the median value of the cpm of three other wells with the complete reaction cocktail, but without any compound, was taken as the “high control”, i.e. full activity in the absence of any inhibitor […]. The difference between high and low control of was taken as 100% activity for each kinase. As part of the data evaluation the low control value of each kinase was subtracted from the high control value as well as from their corresponding “compound values”. The residual activity (in %) for each compound well was calculated by using the following formula: Res. Activity (%)=100×[(cpm of compound−low control)/(high control−low control)]

In the case of `COc1cc(C(=O)OCCOC(=O)c2ccc(O)c(OC)c2)ccc1O` [DLT1, Ethane-1,2-diyl bis-(4-hydroxy-3-methoxybenzoate)], the activity at 50 µM (U373-MG glioma cell line; 50 μM) is reported as 30%.
Work on `COc1cc(C(=O)OCCCCCCOC(=O)c2ccc(O)c(OC)c2)ccc1O` [DLT11, Hexane-1,6-diyl bis-(4-hydroxy-3-methoxybenzoate)] yielded an activity at 50 µM (U373-MG glioma cell line; 50 μM) of 20%.
`COc1cc(C(=O)OCc2cc(COC(=O)c3ccc(O)c(OC)c3)cc(COC(=O)c3ccc(O)c(OC)c3)c2)ccc1O` [DLT95, [3,5-bis[(4-hydroxy-3-methoxy-benzoyl)oxymethyl]phenyl]methyl 4-hydroxy-3-methoxy-benzoate] gave an activity at 50 µM (U373-MG glioma cell line) of 10% and an IC50 (Aurora C kinase) of 3.3 µM.
`O=C(OCc1cc(COC(=O)c2ccc(O)c(Cl)c2)cc(COC(=O)c2ccc(O)c(Cl)c2)c1)c1ccc(O)c(Cl)c1` [DLT95-Cl, [3,5-bis[(4-hydroxy-3-chloro-benzoyl)oxymethyl]phenyl]methyl 4-hydroxy-3-chloro-benzoate] was tested, and the IC50 (Aurora C kinase) was 1.8 µM and the inhibition at 57 µM (Aurora C kinase) was at least 50%.
`O=C(OCc1cc(COC(=O)c2ccc(O)c(F)c2)cc(COC(=O)c2ccc(O)c(F)c2)c1)c1ccc(O)c(F)c1` [DLT95-F, [3,5-bis[(4-hydroxy-3-fluoro-benzoyl)oxymethyl]phenyl]methyl 4-hydroxy-3-fluoro-benzoate] showed an IC50 (Aurora C kinase) of 4.7 µM and an inhibition at 57 µM (Aurora C kinase) of at least 50%.
Compound `COc1cc(C(=O)O)ccc1O` [vanillic acid, reference compound] has an IC50 (Aurora C kinase) of over 100 µM.
